Test results from patent publication US20230293469A1, “NOVEL PHARMACEUTICAL COMPOSITIONS” (NEUROPRO THERAPEUTICS, INC., priority 2020, published 2023).
Values joined by “and” are separate entries in the source; they are usually repeats but may differ in a detail not shown here. Identical values can stand only once. Like-named read-outs stand apart in the source and are kept apart here.

Columns and labels:
Rat Microsomes = assay: Metabolite screening of NPT-2042 in rat microsomes; assay type: in vitro ADME; conditions: NPT-2042 10 uM, microsomes 1 mg/mL
Experimental: (§1) Incubation of Test Compound in Microsomes • 1. Compound final concentration: 10 uM. • 2. Microsomes concentration 1 mg/mL. • 3. Incubate for 1 hour, with an NADPH regenerating system. • 4. 0.5 mL of incubation mixture at 0 min and 1 hour, mixed with 0.5 mL of acetonitrile. • 5. Vortex, and centrifuge at 13200 rpm for 10 min. • 6. Supernatant was transferred to a clean vial for LCMS analysis NADPH regenerating system (cofactor; consisting of NADP [0.340 mg/mL], G6P [1.56 mg/mL], and G6PDH [0.4 U/mL] solutions) LC-MS/MS Method: • HPLC Column: Agilent, Polaris 3 […], 150×2.0 mm (S/N: 533819), made in Netherlands. • Guard Column: Agilent, MonoChrom 3 C18 MetaGuard, 10×2.0 mm (S/N: 556145) • Column temperature: 40° C. • Mobile Phase A: 5 mM ammonium format in water (Optima) • Mobile Phase B: acetonitrile (Optima) • Flow rate: 0.2 mL/min • Gradient (Table on right) • MS: Thermo Q Exactive Plus.

Human Microsomes = assay: Metabolite screening of NPT-2042 in human microsomes; assay type: in vitro ADME; conditions: NPT-2042 10 uM, microsomes 1 mg/mL
Experimental: as §1

[1] = Oral dose PK of NPT2042 in dog (AUC for absolute bioavailability); assay type: in vivo
Experimental: (§2) Assays were performed to determine absolute bioavailability of NPT2042 in two species: dog and rat. The calculation of absolute bioavailability depends on four inputs: the areas under the curves (AUC) for oral and IV, and the oral and IV doses.
Testing was conducted to determine AUCs for an oral dose in dog.
Two dogs were each dosed 30 mg/kg NPT2042 orally, on two different days.

Dog Microsomes = assay: Metabolite screening of NPT-2042 in dog microsomes; assay type: in vitro ADME; conditions: NPT-2042 10 uM, microsomes 1 mg/mL
Experimental: as §1

Microsomes = assay: Proposed metabolite structures and biotransformation pathways (rat, dog, human microsomes); assay type: in vitro ADME; conditions: rat, dog, human microsomes, 10 uM, 1 hour
Experimental: Incubation of Test Compound in Microsomes • 1. Compound final concentration: 10 uM. • 2. Microsomes concentration 1 mg/mL. • 3. Incubate for 1 hour, with an NADPH regenerating system. • 4. 0.5 mL of incubation mixture at 0 min and 1 hour, mixed with 0.5 mL of acetonitrile. • 5. Vortex, and centrifuge at 13200 rpm for 10 min. • 6. Supernatant was transferred to a clean vial for LCMS analysis NADPH regenerating system (cofactor; consisting of NADP [0.340 mg/mL], G6P [1.56 mg/mL], and G6PDH [0.4 U/mL] solutions)
LC-MS/MS Method: • HPLC Column: Agilent, Polaris 3 C18-A, 150×2.0 mm (S/N: 533819), made in Netherlands. • Guard Column: Agilent, MonoChrom 3 C18 MetaGuard, 10×2.0 mm (S/N: 556145) • Column temperature: 40° C. • Mobile Phase A: 5 mM ammonium format in water (Optima) • Mobile Phase B: acetonitrile (Optima) • Flow rate: 0.2 mL/min • Gradient (Table on right) • MS: Thermo Q Exactive Plus.
Summary of Proposed Metabolite Structures and Biotransformation Pathway

[2] = IV bolus PK of NPT-2042 in rat; assay type: in vivo; conditions: IV bolus 10 mg/kg
[3] = Oral dose PK of NPT-2042 in rat; assay type: in vivo
Experimental: as §2
Testing was conducted to determine AUCs for an oral dose in rat.

[4] = 1 hour, NADPH regenerating system
[5] = NPT2042, dog, oral 30 mg/kg, animals D0001, D0601, Mean, 30 mg/kg
[6] = NPT2042, dog, oral 30 mg/kg, animals D0001, D0601, Mean, 30 mg/kg, mean
[7] = dog, in vivo, po, 30 mg/kg, NPT2042, dog, oral 30 mg/kg, animals D0001, D0601, Mean
[8] = rat, individual rats and Mean (N=3), 10 mg/kg
[9] = rat, individual rats and Mean (N=3), 10 mg/kg, mean
[10] = plasma, NPT-2042, rat, oral 30 mg/kg
[11] = rat, oral, dose column 30 mg/kg, individual rats and Mean (N=3)
[12] = rat, oral, dose column 30 mg/kg, individual rats and Mean (N=3), mean

**Q.** What does the source list for `CCCCNc1cc(C(=O)N(Cc2ccccc2)Cc2ccccc2)cc(S(N)(=O)=O)c1Oc1ccccc1` [NPT-2042, N,N-Dibenzyl 3-Aminosulfonyl-5-butylamino-4-phenoxybenzamide]?
**A.** Rat Mic (MS Intensity) (Rat Microsomes; [4]): 7.73E+07; Rat Mic (MS Intensity) (Rat Microsomes; T = 0): 4.15E+08; Human Mic (MS Intensity) (Human Microsomes; [4]): 1.64E+08; Human Mic (MS Intensity) (Human Microsomes; T = 0): 3.71E+08; AUCinf [1, 5]: 1520 ng·h/mL; AUClast [1, 5]: 1450 ng·h/mL; CL/F [1, 5]: 328 mL/min/kg; Cmax [1, 5]: 153 ng/mL; t½ [1, 5]: 4.72 h; AUCinf [1, 6]: 1440 ng·h/mL; AUClast [1, 6]: 1390 ng·h/mL; CL/F [1, 6]: 347 mL/min/kg; Cmax [1, 6]: 152 ng/mL; t½ [1, 6]: 4.16 h; AUC(0-inf) [1, 7]: 1360 ng·h/mL; AUC(0-t) [1, 7]: 1340 ng·h/mL; CL/F ([1]; dog, in vivo, po, 30 mg/kg, NPT2042, dog, oral 30 mg/kg, animals D0001, D0601, Mean, read-out: CL/F (converted)): 367 mL/min/kg; Cmax ([1]; dog, in vivo, po, 30 mg/kg, NPT2042, dog, oral 30 mg/kg, animals D0001, D0601, Mean, read-out: Cmax): 151 ng/mL; Vd/F ([1]; dog, in vivo, po, 30 mg/kg, NPT2042, dog, oral 30 mg/kg, animals D0001, D0601, Mean, read-out: Vz/F): 115 L/kg; half-life ([1]; dog, in vivo, po, 30 mg/kg, NPT2042, dog, oral 30 mg/kg, animals D0001, D0601, Mean, read-out: t½ (converted)): 3.61 h; Absolute bioavailability (AUCpo/AUCiv)*(Doseiv/Dosepo) ([1]; dog, oral 30 mg/kg vs IV 10 mg/kg, as fraction): 0.0509; Tmax ([1]; in vivo, NPT2042, dog, oral 30 mg/kg, animals D0001, D0601, Mean): 6 h; bioavailability ([1]; in vivo, dog, oral 30 mg/kg vs IV 10 mg/kg): 5.1%; Dog Mic (MS Intensity) (Dog Microsomes; [4]): 1.85E+08; Dog Mic (MS Intensity) (Dog Microsomes; T = 0): 3.79E+08; Major biotransformation pathways (Microsomes): De-alkylation, Mono-oxidation, and Mono-oxidation and De-alkylation; clearance ([2]; in vivo, NPT-2042, rat): 48 mL/min/kg; Vd ([2]; in vivo, NPT-2042, rat, read-out: Vz): 10.8 L/kg; half-life ([2]; in vivo, NPT-2042, rat, read-out: t½ (converted)): 2.61 h; AUC(0-inf) ([2]; plasma, NPT-2042, rat): 3470 ng·h/mL; Cmax ([2]; plasma, NPT-2042, rat): 2510 ng/mL; Tmax ([2]; plasma, NPT-2042, rat): 4.8 min; NPT-2042 concentration, Time 0.08 h [2, 8]: 3080 ng/mL and 2720 ng/mL; NPT-2042 concentration, Time 1.00 h [2, 8]: 250 ng/mL and 1190 ng/mL and 924 ng/mL; NPT-2042 concentration, Time 2.00 h [2, 8]: 477 ng/mL and 421 ng/mL; NPT-2042 concentration, Time 4.00 h [2, 8]: 205 ng/mL and 218 ng/mL; NPT-2042 concentration, Time 6.00 h [2, 8]: 203 ng/mL and 145 ng/mL and 60.8 ng/mL; NPT-2042 concentration, Time 8.00 h [2, 8]: 20.0 ng/mL and 33.1 ng/mL and 87.3 ng/mL; NPT-2042 concentration, Time 12.00 h [2, 8]: 60.8 ng/mL and 18.6 ng/mL and 4.67 ng/mL; NPT-2042 concentration, Time 24.00 h [2, 8]: 0.257 ng/mL and 0.582 ng/mL and 1.95 ng/mL; NPT-2042 concentration, Time 0.08 h [2, 9]: 2510 ng/mL; NPT-2042 concentration, Time 1.00 h [2, 9]: 788 ng/mL; NPT-2042 concentration, Time 2.00 h [2, 9]: 405 ng/mL; NPT-2042 concentration, Time 4.00 h [2, 9]: 196 ng/mL; NPT-2042 concentration, Time 6.00 h [2, 9]: 136 ng/mL; NPT-2042 concentration, Time 8.00 h [2, 9]: 46.8 ng/mL; NPT-2042 concentration, Time 12.00 h [2, 9]: 28.0 ng/mL; NPT-2042 concentration, Time 24.00 h [2, 9]: 0.930 ng/mL; concentration at 0.08 h ([2]; rat, plasma, iv, 10 mg/kg, rat, individual rats and Mean (N=3), read-out: NPT-2042 concentration, Time 0.08 h): 1720 ng/mL; concentration at 2 h ([2]; rat, plasma, iv, 10 mg/kg, rat, individual rats and Mean (N=3), read-out: NPT-2042 concentration, Time 2.00 h): 317 ng/mL; concentration at 4 h ([2]; rat, plasma, iv, 10 mg/kg, rat, individual rats and Mean (N=3), read-out: NPT-2042 concentration, Time 4.00 h): 165 ng/mL; half-life ([3]; in vivo, NPT-2042, rat, oral 30 mg/kg, read-out: t½ (converted)): 2.61 h; bioavailability ([3]; in vivo, rat, oral 30 mg/kg vs IV 10 mg/kg, read-out: Fabs (%), absolute bioavailability): 0.34%; AUC(0-inf) [3, 10]: 35.4 ng·h/mL; Cmax [3, 10]: 4.56 ng/mL; Tmax [3, 10]: 4 h; concentration at 0.5 h ([3]; rat, in vivo, oral, 30 mg/kg, rat, oral, dose column 30 mg/kg, individual rats and Mean (N=3), read-out: NPT-2042 concentration, Time 0.50 h): 2.01 ng/mL; concentration at 2 h ([3]; rat, in vivo, oral, 30 mg/kg, rat, oral, dose column 30 mg/kg, individual rats and Mean (N=3), read-out: NPT-2042 concentration, Time 2.00 h): 4 ng/mL; concentration at 4 h ([3]; rat, in vivo, oral, 30 mg/kg, rat, oral, dose column 30 mg/kg, individual rats and Mean (N=3), read-out: NPT-2042 concentration, Time 4.00 h): 3.52 ng/mL; concentration at 6 h ([3]; rat, in vivo, oral, 30 mg/kg, rat, oral, dose column 30 mg/kg, individual rats and Mean (N=3), read-out: NPT-2042 concentration, Time 6.00 h): 3.99 ng/mL; concentration at 12 h ([3]; rat, in vivo, oral, 30 mg/kg, rat, oral, dose column 30 mg/kg, individual rats and Mean (N=3), read-out: NPT-2042 concentration, Time 12.00 h): 0.78 ng/mL; Fabs (ratio), absolute bioavailability ([3]; rat, oral 30 mg/kg vs IV 10 mg/kg): 0.0034; NPT-2042 concentration, Time 0.50 h [3, 11]: 1.29 ng/mL and 1.67 ng/mL; NPT-2042 concentration, Time 1.00 h [3, 11]: 2.14 ng/mL and 4.70 ng/mL and 2.45 ng/mL; NPT-2042 concentration, Time 2.00 h [3, 11]: 2.88 ng/mL and 3.60 ng/mL; NPT-2042 concentration, Time 4.00 h [3, 11]: 5.42 ng/mL and 4.73 ng/mL; NPT-2042 concentration, Time 6.00 h [3, 11]: 2.49 ng/mL and 4.15 ng/mL; NPT-2042 concentration, Time 8.00 h [3, 11]: 1.57 ng/mL and 2.57 ng/mL and 3.20 ng/mL; NPT-2042 concentration, Time 12.00 h [3, 11]: 0.715 ng/mL and 0.731 ng/mL; NPT-2042 concentration, Time 0.50 h [3, 12]: 1.66 ng/mL; NPT-2042 concentration, Time 1.00 h [3, 12]: 3.10 ng/mL; NPT-2042 concentration, Time 2.00 h [3, 12]: 3.49 ng/mL; NPT-2042 concentration, Time 4.00 h [3, 12]: 4.56 ng/mL; NPT-2042 concentration, Time 6.00 h [3, 12]: 3.54 ng/mL; NPT-2042 concentration, Time 8.00 h [3, 12]: 2.45 ng/mL; NPT-2042 concentration, Time 12.00 h [3, 12]: 0.742 ng/mL
